Source: US3965151A, “Intermediates for tricyclic benzodiazepines” (Hoffmann-La Roche Inc., priority 1975, dated 1976)

Assays:
Format in all cases: in vivo
Cats = assay: Unanesthetized Cat (minimum symptoms, usually ataxia; muscle relaxant activity); conditions: Felis catus, oral, read-out: Unanesthetized Cat MED
Experimental: Cats are treated orally and observed for minimum symptoms--usually ataxia. One cat is used at a dose of 50 mgm/kgm. If activity is present, up to three cats/dose are used. Results are given as minimum effective dose. This test is useful in determining muscle relaxant activity.

mice [1] = assay: Foot Shock (blocking of foot shock-induced fighting in pairs of mice); conditions: oral, 1 hour prior to second shocking, three out of three pairs blocked from fighting
Experimental: This test is a screen for compounds having muscle relaxant and/or anti-anxiety (tranquilizer) activity. A pair of mice is confined under a 1 liter beaker placed on a grid which presents shock to the feet. At least five fighting episodes are elicited in a 2-minute period. Pairs of mice are marked and pretreated by oral dosage 1 hour prior to a second shocking. Logarithmic-dose intervals are utilized up to a maximum of 100 mg/kgm. At the 100 per cent blocking dose, three out of three pairs must be blocked from fighting.

mice [2] = assay: Inclined Screen (paralyzing effects, muscle relaxant and/or sedative activity); conditions: Mus musculus, 4 h; male mice, at least four hours observation; dose expected to cause 50 per cent of mice to slide off the screen; read-out: Inclined Screen PD50
Experimental: The test is useful in determining muscle relaxant and/or sedative activity. Groups of six male mice are given the test drug (maximum dose of 500 mg/kg.) and then are left on the inclined screen at least four hours for observation of paralyzing effects severe enough to cause them to slide off the screen. If activity is observed, additional doses are tested until at least two are reached at which some, but not all the animals slide off the screen. Doses at which mice fall off the screen due to toxicity or excitation are not included in the calculation of PD50. The PD50 is determined from a graph on which dose is plotted against per cent of mice paralyzed. This PD50 value is defined as the dose in mg/kg. which can be expected to cause 50 per cent of mice to slide off the screen.

mice [3] = assay: Antimetrazol (protection from metrazol-induced convulsive seizures); conditions: Mus musculus, oral, 1 hour before metrazol ~125 mg/kg s.c., 50 per cent of animals protected from convulsive seizures, read-out: Antimetrazole ED50
Experimental: This test determines anticonvulsant and/or sedative activity of compounds in mice. The test compound is administered orally to groups of four mice at various dose levels. One hour later, metrazol (at a dose level previously determined to be sufficient to induce convulsive seizures in all test animals ~125 mg/kg.) is administered subcutaneously and the animals are observed for protection from convulsive seizures. Results are recorded as the number of animals protected against convulsions. The dose at which 50 per cent of the animals are protected from convulsive seizures is expressed as the ED50.

Compound | minimal effective dose (Cats) | Footshock 100% Blocking Dose Level (mice [1]) | ED50 (mice [2]) | ED50 (mice [3])
O=C1CN2CCOC2(c2ccccc2F)c2cc(Cl)ccc2N1CCO (stereo not shown) [Compound B, 10-Chloro-11b-(2-fluorophenyl)-7-(2-hydroxyethyl)-2,3,5,11b-tetrahydrooxazolo[3,2-d][1,4]benzodiazepin-6(7H)-one] | 5 mg/kg | 4 mg | 15 mg/kg | 2.03 mg/kg
O=C1CN2CCOC2(c2ccccc2)c2cc(Cl)ccc2N1CCO (stereo not shown) [Compound A, 10-chloro-7-(2-hydroxyethyl)-2,3,5,11b-tetrahydro-11b-phenyloxazolo[3,2-d][1,4]benzodiazepin-6-(7H)-one] | 5 mg/kg | 20 mg | 50 mg/kg | 
